{
  "source": "patent US12679903B2",
  "about": "“Antibody for specifically binding to lysyl-tRNA synthetase N-terminal domain exposed to extracellular membrane” (Zymedi Co., Ltd., priority 2018, dated 2026)",
  "assay_type_in_all_cases": "in vivo, SD rats",
  "key": {"[1]": {"test_system": "pulmonary arterial hypertension (PAH) models", "assay": "PAH model, blood flow and blood pressure measurement", "settings": "MCT + Sildenafil 25 mpk, orally every day, 3 weeks", "source_text": "(§1) To induce PAH in 7-week-old SD rats (Oriental Bio), 60 mpk of MCT (monocrotaline) were subcutaneously injected. Thereafter, the rats were divided into four groups (tested with five animals in each group), and were administrated with 1mpk of Mock human IgG (Thermo Fisher Scientific, negative control), 1mpk of N3 IgG antibody, 10mpk of N3 IgG antibody, and 25 mpk of sildenafil (positive control) for 3 weeks. All antibodies were i.v. injected twice a week and sildenafil was orally administered every day.\nAfter three weeks, the rats were anesthetized with isoflurane, and blood flow and pressure were measured using an MPVS Cardiovascular Pressure and Volume system (model name: MPVS Ultra, manufacturer: Millar Instruments). The right ventricular end-systolic pressure (RVESP), right ventricular end-diastolic pressure, left ventricular end-systolic pressure, left ventricular end-diastolic pressure were measured using an exclusive catheter (Mikro-Tip rat pressure catheter, manufacturer: Millar Instruments). The cardiac output was measured using a perivascular blood flow probe (Transonic Flow probes, manufacturer: […]), and experimental method thereof was performed by the same method as disclosed in the following literature: Pacher P, Nagayama T, Mukhopadhyay P, Batkai S, Kass DA. Measurement of cardiac function using pressure-volume conductance catheter technique in mice and rats. Nat Protoc 2008; 3 (9): 1422-34."}, "[2]": {"test_system": "pulmonary arterial hypertension (PAH) models", "assay": "PAH model, echocardiography", "settings": "MCT PAH rats", "source_text": "as §1"}, "[3]": {"assay": "PAH model, body weight and abnormal signs", "settings": "MCT + Sildenafil", "source_text": "as §1"}},
  "data": [
    {"molecule": "CCCc1nn(C)c2c(=O)[nH]c(-c3cc(S(=O)(=O)N4CCN(C)CC4)ccc3OCC)nc12", "note": "[Sildenafil, sildenafil]", "values": [
      {"measurement": "CO", "setting": "[1]", "value": "49.6 ± 17.7", "unit": "mL/min"},
      {"measurement": "LVEDP", "setting": "[1]", "value": "3.6 ± 2.3", "unit": "mmHg"},
      {"measurement": "LVESP", "setting": "[1]", "value": "83.2 ± 4.7", "unit": "mmHg"},
      {"measurement": "RVEDP", "setting": "[1]", "value": "2.6 ± 1.3", "unit": "mmHg"},
      {"measurement": "RVESP", "setting": "[1]", "value": "48.4 ± 9.6", "unit": "mmHg"},
      {"measurement": "D-shaped left ventricle indicating pressure overload in the right ventricle", "setting": "[2]", "value": "three animals"},
      {"measurement": "body weight, Absolute change", "setting": "[3]", "value": "104.1 ± 26.4", "unit": "g"},
      {"measurement": "body weight, Relative change", "setting": "[3]", "value": "49.8 ± 10.5", "unit": "%"}
    ]}
  ]
}
